Experimental data published in ChEMBL document CHEMBL5338754, “Identification of Binding Sites in the Nucleotide-Binding Domain of P-Glycoprotein for a Potent and Nontoxic Modulator, the Amine-Containing Monomeric Flavonoid FM04” (J Med Chem, 2023).

Tests used:
[1] = biological target: T1, ATP-dependent translocase ABCB1 (Homo sapiens, UniProt P08183, I1115L); test: Negative allosteric modulator activity at human P-gp I1115L mutant expressed in HEK293FT cells assessed as increase in intracellular doxorubicin accumulation using doxorubicin as substrate at 1 uM incubated for 150 mins by microplate reader assay (reference value: 58.9 +/- 2.2 %); format: cell-based; details: 2.5 h
T1 sequence (P08183 whole entry I1115L): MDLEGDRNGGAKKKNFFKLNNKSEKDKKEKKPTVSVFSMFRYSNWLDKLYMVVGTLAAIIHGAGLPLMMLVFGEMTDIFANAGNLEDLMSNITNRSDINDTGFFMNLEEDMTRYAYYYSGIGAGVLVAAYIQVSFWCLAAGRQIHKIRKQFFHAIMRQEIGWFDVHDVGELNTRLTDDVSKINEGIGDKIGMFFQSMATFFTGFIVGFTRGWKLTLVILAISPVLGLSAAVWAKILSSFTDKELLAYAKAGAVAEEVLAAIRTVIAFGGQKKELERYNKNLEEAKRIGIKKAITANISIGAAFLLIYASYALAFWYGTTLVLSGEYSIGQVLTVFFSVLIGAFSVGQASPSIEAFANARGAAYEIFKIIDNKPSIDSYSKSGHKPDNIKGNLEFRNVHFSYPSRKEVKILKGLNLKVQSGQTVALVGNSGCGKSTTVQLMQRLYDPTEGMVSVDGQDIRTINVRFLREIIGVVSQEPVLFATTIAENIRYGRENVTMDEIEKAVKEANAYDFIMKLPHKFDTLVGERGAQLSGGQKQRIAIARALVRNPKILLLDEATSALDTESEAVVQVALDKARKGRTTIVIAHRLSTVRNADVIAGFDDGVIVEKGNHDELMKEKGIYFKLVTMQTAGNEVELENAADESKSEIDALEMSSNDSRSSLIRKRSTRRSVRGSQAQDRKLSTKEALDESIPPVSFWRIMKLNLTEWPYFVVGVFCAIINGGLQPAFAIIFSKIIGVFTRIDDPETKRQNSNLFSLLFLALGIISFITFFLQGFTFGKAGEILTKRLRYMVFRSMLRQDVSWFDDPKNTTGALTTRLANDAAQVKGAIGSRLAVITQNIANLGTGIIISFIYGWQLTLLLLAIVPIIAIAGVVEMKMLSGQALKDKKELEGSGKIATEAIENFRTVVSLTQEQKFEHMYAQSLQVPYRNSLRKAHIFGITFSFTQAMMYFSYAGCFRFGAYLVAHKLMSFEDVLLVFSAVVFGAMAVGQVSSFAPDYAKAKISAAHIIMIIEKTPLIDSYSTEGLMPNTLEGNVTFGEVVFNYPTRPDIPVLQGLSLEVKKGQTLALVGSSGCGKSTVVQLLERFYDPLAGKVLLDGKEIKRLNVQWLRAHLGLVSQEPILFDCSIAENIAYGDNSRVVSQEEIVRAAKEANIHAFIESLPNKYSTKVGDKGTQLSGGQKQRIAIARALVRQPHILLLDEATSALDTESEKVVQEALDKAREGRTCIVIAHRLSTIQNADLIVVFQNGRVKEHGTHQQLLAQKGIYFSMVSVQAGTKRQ

[2] = biological target: T2, ATP-dependent translocase ABCB1 (Homo sapiens, UniProt P08183, I1115F); test: Activation of P-gp ATPase activity in human P-gp I1115F mutant expressed in HEK293FT cell microsomes at 20 uM incubated for 1 hr in presence of ATP by Glo-luminescence based microplate reader assay (reference value: 0.21 +/- 0.05 pmol/min/microg); parameters: species or system Microsome
T2 sequence (P08183 whole entry I1115F): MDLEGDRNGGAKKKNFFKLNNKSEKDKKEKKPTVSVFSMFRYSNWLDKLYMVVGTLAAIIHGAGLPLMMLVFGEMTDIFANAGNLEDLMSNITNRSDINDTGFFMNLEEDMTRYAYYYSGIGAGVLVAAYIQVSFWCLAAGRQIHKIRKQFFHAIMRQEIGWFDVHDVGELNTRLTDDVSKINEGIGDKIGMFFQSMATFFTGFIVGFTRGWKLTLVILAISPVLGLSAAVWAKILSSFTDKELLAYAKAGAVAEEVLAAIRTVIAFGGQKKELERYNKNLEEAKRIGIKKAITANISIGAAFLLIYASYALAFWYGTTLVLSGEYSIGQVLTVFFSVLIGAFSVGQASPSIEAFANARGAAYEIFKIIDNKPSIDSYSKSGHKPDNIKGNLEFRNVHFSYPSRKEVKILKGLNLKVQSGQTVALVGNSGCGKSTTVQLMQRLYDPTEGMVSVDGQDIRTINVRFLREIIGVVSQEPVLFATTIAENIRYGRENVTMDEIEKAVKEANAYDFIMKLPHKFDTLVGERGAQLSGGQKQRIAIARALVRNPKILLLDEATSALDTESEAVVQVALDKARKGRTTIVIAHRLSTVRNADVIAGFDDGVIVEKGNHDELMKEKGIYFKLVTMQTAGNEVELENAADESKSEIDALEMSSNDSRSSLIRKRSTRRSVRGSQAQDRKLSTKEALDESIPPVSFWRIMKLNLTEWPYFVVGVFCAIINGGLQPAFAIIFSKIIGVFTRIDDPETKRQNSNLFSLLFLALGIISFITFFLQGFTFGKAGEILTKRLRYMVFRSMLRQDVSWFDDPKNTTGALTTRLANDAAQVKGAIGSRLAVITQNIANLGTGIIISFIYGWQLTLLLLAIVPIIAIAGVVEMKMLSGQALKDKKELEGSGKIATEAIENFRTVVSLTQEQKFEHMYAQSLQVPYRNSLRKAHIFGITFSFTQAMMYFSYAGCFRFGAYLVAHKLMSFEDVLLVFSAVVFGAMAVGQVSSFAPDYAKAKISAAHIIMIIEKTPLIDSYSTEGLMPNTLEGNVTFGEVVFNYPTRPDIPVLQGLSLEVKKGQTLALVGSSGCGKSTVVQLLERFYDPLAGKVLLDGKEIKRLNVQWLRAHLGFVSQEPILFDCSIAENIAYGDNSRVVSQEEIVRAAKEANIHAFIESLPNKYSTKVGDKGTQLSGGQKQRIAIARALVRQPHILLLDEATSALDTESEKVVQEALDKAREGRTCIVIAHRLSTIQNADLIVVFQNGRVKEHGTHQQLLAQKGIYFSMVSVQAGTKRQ

[3] = biological target: ATP-dependent translocase ABCB1 (Homo sapiens, UniProt P08183, I1115E); test: Negative allosteric modulator activity at human P-gp I1115E mutant expressed in HEK293FT cells assessed as fold change in intracellular doxorubicin accumulation using doxorubicin as substrate at 1 uM incubated for 150 mins by microplate reader assay relative to DMSO; format: cell-based; details: 2.5 h
[4] = biological target: T3, ATP-dependent translocase ABCB1 (Homo sapiens, UniProt P08183, G1114L); test: Negative allosteric modulator activity at human P-gp G1114L mutant expressed in HEK293FT cells assessed as increase in intracellular doxorubicin accumulation using doxorubicin as substrate at 1 uM incubated for 150 mins by microplate reader assay (reference value: 97.9 +/- 4.2 %); format: cell-based; details: 2.5 h
[5] = biological target: ATP-dependent translocase ABCB1 (Homo sapiens, UniProt P08183); test: Negative allosteric modulator activity at human wildtype P-gp expressed in HEK293FT cells assessed as reversal of P-gp mediated PTX resistance by measuring sensitivity fold change incubated for 5 days by MTS assay; format: cell-based; details: 120 h, time 5 day
[6] = biological target: ATP-dependent translocase ABCB1 (Homo sapiens, UniProt P08183, I1115W); test: Negative allosteric modulator activity at human P-gp I1115W mutant expressed in HEK293FT cells assessed as increase in intracellular doxorubicin accumulation using doxorubicin as substrate at 1 uM incubated for 150 mins by microplate reader assay (reference value: 98.4 +/- 1.3 %); format: cell-based; details: 2.5 h
[7] = biological target: T3, ATP-dependent translocase ABCB1; test: Negative allosteric modulator activity at human P-gp G1114L mutant expressed in HEK293FT cells assessed as fold change in intracellular doxorubicin accumulation using doxorubicin as substrate at 1 uM incubated for 150 mins by microplate reader assay relative to DMSO; format: cell-based; details: 2.5 h
[8] = biological target: T4, ATP-dependent translocase ABCB1 (Homo sapiens, UniProt P08183, Q1193E); test: Negative allosteric modulator activity at human P-gp Q1193E mutant expressed in HEK293FT cells assessed as increase in intracellular doxorubicin accumulation using doxorubicin as substrate at 1 uM incubated for 150 mins by microplate reader assay (reference value: 62.9 +/- 1.4 %); format: cell-based; details: 2.5 h
T4 sequence (P08183 whole entry Q1193E): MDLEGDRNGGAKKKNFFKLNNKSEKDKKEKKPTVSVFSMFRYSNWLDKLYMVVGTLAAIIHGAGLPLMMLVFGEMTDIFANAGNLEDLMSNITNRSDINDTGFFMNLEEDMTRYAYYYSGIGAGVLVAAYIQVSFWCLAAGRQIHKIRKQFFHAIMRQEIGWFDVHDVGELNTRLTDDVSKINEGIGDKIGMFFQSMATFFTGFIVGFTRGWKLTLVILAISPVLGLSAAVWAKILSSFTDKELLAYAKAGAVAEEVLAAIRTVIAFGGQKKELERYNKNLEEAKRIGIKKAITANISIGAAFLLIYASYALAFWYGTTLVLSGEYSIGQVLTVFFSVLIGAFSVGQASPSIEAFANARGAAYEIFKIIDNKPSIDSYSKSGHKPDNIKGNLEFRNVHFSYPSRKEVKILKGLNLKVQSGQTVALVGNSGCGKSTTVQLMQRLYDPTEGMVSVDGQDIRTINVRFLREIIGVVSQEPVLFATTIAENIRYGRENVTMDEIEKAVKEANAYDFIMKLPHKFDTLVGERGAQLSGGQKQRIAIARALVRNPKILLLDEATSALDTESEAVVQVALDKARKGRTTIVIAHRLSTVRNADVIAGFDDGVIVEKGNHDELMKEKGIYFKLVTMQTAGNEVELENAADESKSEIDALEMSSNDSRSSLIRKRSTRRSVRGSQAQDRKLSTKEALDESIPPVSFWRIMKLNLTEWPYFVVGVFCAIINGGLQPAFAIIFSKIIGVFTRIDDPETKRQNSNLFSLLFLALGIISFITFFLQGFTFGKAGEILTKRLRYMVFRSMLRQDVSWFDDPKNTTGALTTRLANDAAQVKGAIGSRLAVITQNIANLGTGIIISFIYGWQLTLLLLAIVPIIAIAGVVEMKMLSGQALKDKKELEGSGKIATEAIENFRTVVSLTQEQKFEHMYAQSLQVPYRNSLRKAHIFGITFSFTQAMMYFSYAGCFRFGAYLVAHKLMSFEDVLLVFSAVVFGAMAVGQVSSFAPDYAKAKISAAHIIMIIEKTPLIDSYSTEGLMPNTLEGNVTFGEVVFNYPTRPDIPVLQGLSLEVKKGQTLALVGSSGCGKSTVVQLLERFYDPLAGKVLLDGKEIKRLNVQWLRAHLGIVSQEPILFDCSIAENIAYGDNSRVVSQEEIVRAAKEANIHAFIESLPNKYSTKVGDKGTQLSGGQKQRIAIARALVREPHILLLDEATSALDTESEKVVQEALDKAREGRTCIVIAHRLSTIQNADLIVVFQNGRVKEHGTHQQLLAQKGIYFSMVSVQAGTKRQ

[9] = biological target: T4, ATP-dependent translocase ABCB1; test: Negative allosteric modulator activity at human P-gp Q1193E mutant expressed in HEK293FT cells assessed as reversal of P-gp mediated PTX resistance by measuring sensitivity fold change incubated for 5 days by MTS assay; format: cell-based; details: 120 h, time 5 day
[10] = biological target: T5, ATP-dependent translocase ABCB1 (Homo sapiens, UniProt P08183, Q1193F); test: Negative allosteric modulator activity at human P-gp Q1193F mutant expressed in HEK293FT cells assessed as reversal of P-gp mediated PTX resistance by measuring sensitivity fold change incubated for 5 days by MTS assay; format: cell-based; details: 120 h, time 5 day
T5 sequence (P08183 whole entry Q1193F): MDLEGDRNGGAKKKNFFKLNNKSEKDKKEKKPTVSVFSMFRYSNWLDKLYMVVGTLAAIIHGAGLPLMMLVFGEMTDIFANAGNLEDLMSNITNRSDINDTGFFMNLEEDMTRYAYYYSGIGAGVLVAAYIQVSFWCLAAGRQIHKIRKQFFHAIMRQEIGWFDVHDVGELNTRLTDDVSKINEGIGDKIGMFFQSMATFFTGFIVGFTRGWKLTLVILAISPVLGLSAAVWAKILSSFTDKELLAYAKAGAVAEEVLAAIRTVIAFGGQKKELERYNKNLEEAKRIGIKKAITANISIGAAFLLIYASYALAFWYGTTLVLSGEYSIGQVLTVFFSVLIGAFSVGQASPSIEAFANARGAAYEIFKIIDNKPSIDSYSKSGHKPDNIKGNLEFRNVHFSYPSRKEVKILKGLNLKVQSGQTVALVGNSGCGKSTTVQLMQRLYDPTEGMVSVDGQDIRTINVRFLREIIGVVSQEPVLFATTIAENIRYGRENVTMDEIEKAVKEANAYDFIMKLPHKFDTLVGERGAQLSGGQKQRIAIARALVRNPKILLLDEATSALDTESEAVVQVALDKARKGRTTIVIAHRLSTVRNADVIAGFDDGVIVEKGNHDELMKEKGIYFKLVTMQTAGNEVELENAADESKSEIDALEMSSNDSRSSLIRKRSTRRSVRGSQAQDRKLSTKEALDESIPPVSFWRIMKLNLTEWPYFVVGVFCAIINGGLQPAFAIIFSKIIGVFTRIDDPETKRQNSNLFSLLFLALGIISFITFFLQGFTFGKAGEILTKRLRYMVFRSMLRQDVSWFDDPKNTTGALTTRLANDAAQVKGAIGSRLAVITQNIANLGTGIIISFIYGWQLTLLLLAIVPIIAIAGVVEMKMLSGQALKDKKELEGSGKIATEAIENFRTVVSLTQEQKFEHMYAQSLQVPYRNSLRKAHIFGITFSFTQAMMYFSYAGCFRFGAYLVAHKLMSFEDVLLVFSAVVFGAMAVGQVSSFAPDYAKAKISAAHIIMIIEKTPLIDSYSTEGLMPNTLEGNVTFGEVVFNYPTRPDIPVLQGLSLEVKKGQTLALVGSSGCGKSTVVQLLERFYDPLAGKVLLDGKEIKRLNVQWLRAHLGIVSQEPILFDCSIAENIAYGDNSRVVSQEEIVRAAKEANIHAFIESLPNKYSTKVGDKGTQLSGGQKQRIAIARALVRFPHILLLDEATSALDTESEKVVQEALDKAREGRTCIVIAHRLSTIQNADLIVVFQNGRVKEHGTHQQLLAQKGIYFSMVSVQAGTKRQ

[11] = biological target: T5, ATP-dependent translocase ABCB1; test: Activation of P-gp ATPase activity in human P-gp Q1193F mutant expressed in HEK293FT cell microsomes assessed as fold change of ATPase activity at 20 uM incubated for 1 hr in presence of ATP by Glo-luminescence based microplate reader assay relative to DMSO; parameters: species or system Microsome
[12] = biological target: ATP-dependent translocase ABCB1 (Homo sapiens, UniProt P08183, L1113A); test: Negative allosteric modulator activity at human P-gp L1113A mutant expressed in HEK293FT cells assessed as reversal of P-gp mediated PTX resistance by measuring sensitivity fold change incubated for 5 days by MTS assay; format: cell-based; details: 120 h, time 5 day
[13] = biological target: ATP-dependent translocase ABCB1 (Homo sapiens, UniProt P08183, Q1193C); test: Negative allosteric modulator activity at human P-gp Q1193C mutant expressed in HEK293FT cells assessed as reversal of P-gp mediated PTX resistance by measuring sensitivity fold change incubated for 5 days by MTS assay; format: cell-based; details: 120 h, time 5 day
[14] = biological target: ATP-dependent translocase ABCB1 (Homo sapiens, UniProt P08183, Q1193A); test: Negative allosteric modulator activity at human P-gp Q1193A mutant expressed in HEK293FT cells assessed as fold change in intracellular doxorubicin accumulation using doxorubicin as substrate at 1 uM incubated for 150 mins by microplate reader assay relative to DMSO; format: cell-based; details: 2.5 h
[15] = biological target: T2, ATP-dependent translocase ABCB1; test: Negative allosteric modulator activity at human P-gp I1115F mutant expressed in HEK293FT cells assessed as reversal of P-gp mediated PTX resistance by measuring sensitivity fold change incubated for 5 days by MTS assay; format: cell-based; details: 120 h, time 5 day
[16] = biological target: T1, ATP-dependent translocase ABCB1; test: Negative allosteric modulator activity at human P-gp I1115L mutant expressed in HEK293FT cells assessed as reversal of P-gp mediated PTX resistance by measuring sensitivity fold change incubated for 5 days by MTS assay; format: cell-based; details: 120 h, time 5 day
[17] = biological target: ATP-dependent translocase ABCB1 (Homo sapiens, UniProt P08183, T1226A); test: Negative allosteric modulator activity at human P-gp T1226A mutant expressed in HEK293FT cells assessed as increase in intracellular doxorubicin accumulation using doxorubicin as substrate at 1 uM incubated for 150 mins by microplate reader assay (reference value: 89 +/- 4 %); format: cell-based; details: 2.5 h
[18] = biological target: T4, ATP-dependent translocase ABCB1; test: Negative allosteric modulator activity at human P-gp Q1193E mutant expressed in HEK293FT cells assessed as fold change in intracellular doxorubicin accumulation using doxorubicin as substrate at 1 uM incubated for 150 mins by microplate reader assay relative to DMSO; format: cell-based; details: 2.5 h
[19] = biological target: ATP-dependent translocase ABCB1 (Homo sapiens, UniProt P08183, I1115N); test: Negative allosteric modulator activity at human P-gp I1115N mutant expressed in HEK293FT cells assessed as increase in intracellular doxorubicin accumulation using doxorubicin as substrate at 1 uM incubated for 150 mins by microplate reader assay (reference value: 98.6 +/- 4.3 %); format: cell-based; details: 2.5 h
P-gp (ABCB1) wildtype = P-gp (ABCB1) wildtype (Homo sapiens, UniProt P08183); test: Activation of P-gp ATPase activity in wildtype human P-gp expressed in HEK293FT cell microsomes assessed as fold change of ATPase activity at 20 uM incubated for 1 hr in presence of ATP by Glo-luminescence based microplate reader assay relative to DMSO; parameters: species or system Microsome; details: microsomes of HEK293FT cells expressing wildtype human P-gp, read-out: FC
[20] = biological target: ATP-dependent translocase ABCB1 (Homo sapiens, UniProt P08183, Q1193K); test: Negative allosteric modulator activity at human P-gp Q1193K mutant expressed in HEK293FT cells assessed as reversal of P-gp mediated PTX resistance by measuring sensitivity fold change incubated for 5 days by MTS assay; format: cell-based; details: 120 h, time 5 day

O=c1cc(-c2ccc(OCCOCCNCc3ccccc3)cc2)oc2ccccc12
Activity [1]: 97.2%
Activity [2]: 0.25 pmol/min/µg
fold change (FC) [3]: 1
Activity [4]: 95%
fold change (FC) [5]: 73
Activity [6]: 99%
fold change (FC) [7]: 1
Activity [8]: 71.4%
fold change (FC) [9]: 4.3
fold change (FC) [10]: 5.6
fold change (FC) [11]: 1.1
fold change (FC) [12]: 140.5
fold change (FC) [13]: 12.4
fold change (FC) [14]: 1.1
fold change (FC) [15]: 15.6
fold change (FC) [16]: 45.8
Activity [17]: 85.8%
fold change (FC) [18]: 1.1
Activity [19]: 94.1%
fold induction at 1 h, 20 µM (P-gp (ABCB1) wildtype): 1.6
fold change (FC) [20]: 9.4
